# Results: US6368632B1, “Microencapsulated 3-piperidinyl-substituted 1,2-benzisoxazoles and 1,2-benzisothiazoles” (Janssen Pharmaceutica, priority 1993, dated 2002)
# Legend:
# dopamine-D2 = dopamine-D2 (Homo sapiens, UniProt P14416); settings: Janssen et al., J. Pharmacol. Exp. Ther. 244 (2):685-693 (1988); cited from earlier work
# [1] = Solubility in the real time in vitro dissolution receiving medium; settings: 50 mM tris buffer, 37 °C, pH 7.4, aqueous buffer
# Sequence of dopamine-D2 (P14416 whole entry): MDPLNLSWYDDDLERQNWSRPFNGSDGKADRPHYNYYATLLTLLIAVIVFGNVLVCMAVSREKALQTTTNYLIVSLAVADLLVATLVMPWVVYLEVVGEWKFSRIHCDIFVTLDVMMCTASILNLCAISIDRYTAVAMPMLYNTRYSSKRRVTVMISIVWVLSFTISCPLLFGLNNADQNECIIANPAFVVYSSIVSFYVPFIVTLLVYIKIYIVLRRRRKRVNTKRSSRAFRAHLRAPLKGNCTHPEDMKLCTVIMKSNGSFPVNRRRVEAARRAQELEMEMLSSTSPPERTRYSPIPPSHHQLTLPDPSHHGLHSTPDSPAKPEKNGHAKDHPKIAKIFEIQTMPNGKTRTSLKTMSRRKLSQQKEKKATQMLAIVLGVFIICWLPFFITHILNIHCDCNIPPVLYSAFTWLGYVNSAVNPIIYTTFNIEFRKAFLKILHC
smiles,measurement,setting,value
"Cc1nc2n(c(=O)c1CCN1CCC(c3noc4cc(F)ccc34)CC1)CCCC2 [Risperidone, 3-[2-[4-(6-fluoro-1,2-benzisoxazol-3-yl)-1-piperidinyl)ethyl]-6,7,8,9-tetrahydro-2-methyl-4H -pyrido[1,2-a]pyrimidin-4-one]",activity in tests related to dopamine-D2 antagonism,dopamine-D2,showed activity in all tests related to dopamine-D2 antagonism
same,solubility,[1],≥ 500 µg/mL
